# Results taken from publication PMC7270110, “Labeled oxytocin administered via the intranasal route reaches the brain in rhesus macaques” (Nature Communications, 2020).
# “And” between values parts separate entries of the source, which are not always exact repeats. Equal values may be shown once.
# How the values were obtained:
# [1] = Brain tissue concentration of administered d5OT by LC-MS/MS (terminal experiment); type: in vivo, rhesus macaques (Macaca mulatta); design: key to BRAIN d5OT concentration: ND: not detected; +: detected but not quantifiable; details: for tissue level at time at 148 min: female
# Procedure: Monkeys were divided into three groups, each with two monkeys; each group received the following in a terminal study at the 5th week: Group 1 (Monkeys ID# 1 and ID# 5) received 40 IU of d5OT IN, Group 2 received 80 IU of d5OT IN (Monkeys ID# 2 and ID# 4) and Group 3 received 80 IU of d5OT IV (Monkeys ID# 3 and ID# 6). Animals were perfused on average, 140 ± 7 (mean ± SD) min after d5OT administration (range = 135–149 min) (Table 4). Plasma and CSF were drawn just before administration of d5OT, at the midpoint between d5OT administration and perfusion (~60 min post-d5OT administration), and just before perfusion.
# Brain tissue distribution of d5OT, as well as the endogenous concentrations of OT (d0OT), were measured in the following 12 brain regions: cerebellum, brainstem, striatum, amygdala, thalamus, visual cortex, insular cortex, hypothalamus, hippocampus, mPFC (Brodmann areas 32,25,24), dPFC (Brodmann areas 46,9,10), and OFC (Brodmann areas 14,13,12) (Tables 1, 2 and 3).
# Brain tissue sample preparation: Samples (~1.5 mg per sample) were individually weighed and placed into 12 mm × 75 mm glass tubes containing 1.5 ml ice-cold 1 M acetic acid and 30 µl of OT-d10 internal standard. Tissues were homogenized on ice and the resulting homogenates were poured into individual 15 ml polystyrene tubes. The original glass tube was rinsed with 1 ml acetonitrile, and this rinse was added to the appropriate 15 ml polystyrene tube containing the homogenate. After all homogenizations were complete, 3 ml acetonitrile was added to each tube and extraction proceeded, as described for the plasma and CSF samples.
# LC–MS/MS instrument parameters: Microtiter plates were prepared, as described above, and loaded onto a SIL-30ACMP autosampler set at 4 °C (Shimadzu). Forty microliters of each standard, QC or sample were injected onto an ACE Excel 2 C18-PFP 50 mm × 2.1 mm column (Advanced Chromatography Technologies, LTD, Aberdeen, Scotland) at 50 °C using reversed-phase chromatography. Mobile phase A was 0.1% formic acid in water and mobile phase B was 0.1% formic acid in ACN. The LC time gradient was created using two Nexera LC-30AD pumps (Shimadzu) running at 0.5 ml/min. Chromatography for serum and CSF samples began at 10% B and ended at 16% B at 3.6 min. One minute at 60% B was then required to wash the column, and the pumps re-equilibrated at 10% B for an additional 1.7 min (total run time ~6 min). Outside of the 1.55–3.55 min window during which OT eluted, a divert valve sent the LC effluent to waste.
# Heated electrospray […] in positive mode, with scheduled multiple reaction monitoring (MRM) on a Shimadzu LCMS-8050, was used for detection of OT. The interface temperature was 270 °C and heat block temperature was 170 °C. Gas was supplied by a Peak Genius 1051 nitrogen and air generator (Peak Scientific, Inchinnan, UK). Nitrogen gas was used for nebulizing (1 L/min) and drying (8.2 L/min), while air was used for heating (7.8 L/min). A capillary B needle was used in the interface. Needle protrusion was set to 1.25 mm and probe distance was set to 1.0 mm; both were determined empirically. Argon (Airgas, Radnor, PA) was used for the collision-induced dissociation at 330 kPa. The MS/MS conditions for OT were optimized using the automated MRM optimization procedure in LabSolutions software (Shimadzu). We collected two MRM transitions each, for d0OT (1007.40 > 723.40 and 1007.40 > 285.30), d5OT (1012.00 > 723.40 and 1012.00 > 290.35), and d10OT (1017.70 > 723.35 and 1017.70 > 295.40); the first transition listed in each case was used for quantitation, while the second was used as a reference ion. Retention times for d0OT, d5OT, and d10OT were 3.290, 3.270, and 3.253 min, respectively.
# The sensitivities of each assay within the method were determined by the lowest and highest concentration calibrators in the calibration curve. The lower limit of quantitation (LLOQ) for d0OT was 10 pg/ml (4 pg/col); the LLOQ for d5OT was 100 pg/ml (40 pg/col). […]
# [2] = LOQ 10 pg/ml, cited from earlier work
# Procedure: (§1) Further, at 60 min in the previous study, the CSF concentrations of d5OT after IN delivery of 80 IU were highly variable (11, 16, 67, and 221 pg/ml), and would have been detectable in only two of the monkeys using the a ... || page 8: 4. It is surprising that no CSF d5 OT was detected at 60 or 120 minutes in CSF after IN administration. […] In our previous study (Lee et al., Mol Psychiatry 2018), after IN administration, CSF d5OT concentration at 60 minutes was quantified in 4 monkeys as follows: 11.28, 15.99, 67.65 and 221.62 pg/ml. In this previous study, the limit of quantification (LOQ) for d5OT was 10 pg/ml. The LOQ of d5OT in the present study was 100 pg/ml and the method dete ...
# [3] = humans; 24 IU OT (not labelled) intranasally; 75 minutes post-administration; radioimmunoassay; ref Striepens et al., Sci Rep 2013; cited from earlier work
# Procedure: as §1, with “page” for “Further, at 60 min in the previous study, the CSF concentrations of d5OT after IN delivery of 80 IU were highly variable (11, 16, 67, and 221 pg/ml), and would have been detectable in only two of the monkeys using the a ... || page”
smiles,measurement,setting,value
CC[C@H](C)[C@@H]1NC(=O)[C@H](Cc2ccc(O)cc2)NC(=O)[C@@H](N)CSSC[C@@H](C(=O)N2CCC[C@H]2C(=O)N[C@@H](CC(C)C)C(=O)NCC(N)=O)NC(=O)[C@H](CC(N)=O)NC(=O)[C@H](CCC(N)=O)NC1=O [d5OT],"Brain penetrance of d5OT in the striatum, % of the dose delivered IN","[1]; 40 IU IN, assuming ~20% of delivered volume reaches upper nasal cavity",~0.03%
same,BRAIN d5OT concentration,"[1]; Amygdala, 40 IU IN, monkey #5 (F), perfused 138 min post-dose, LC-MS/MS",+
same,BRAIN d5OT concentration,"[1]; Brainstem, 40 IU IN, monkey #1 (F), perfused 148 min post-dose, LC-MS/MS",+
same,BRAIN d5OT concentration,"[1]; Brainstem, 80 IU IN, monkey #2 (M), 136 min post-dose, molarity calculated for extracellular fluid volume (20% of brain volume)",< 1 nM
same,BRAIN d5OT concentration,"[1]; Brainstem, 80 IU IN, monkey #2 (M), perfused 136 min post-dose, LC-MS/MS",0.14 pg/mg
same,BRAIN d5OT concentration,"[1]; Brainstem, 80 IU IN, monkey #4 (M), 135 min post-dose, molarity calculated for extracellular fluid volume (20% of brain volume)",1 nM
same,BRAIN d5OT concentration,"[1]; Brainstem, 80 IU IV, monkey #6 (F), perfused 135 min post-dose, LC-MS/MS",+
same,BRAIN d5OT concentration,"[1]; Cerebellum, 80 IU IN, monkey #4 (M), perfused 135 min post-dose, LC-MS/MS",+
same,BRAIN d5OT concentration,"[1]; OFC, 80 IU IN, monkey #2 (M), 136 min post-dose, molarity calculated for extracellular fluid volume (20% of brain volume)",11 nM
same,BRAIN d5OT concentration,"[1]; Striatum, 40 IU IN, monkey #1 (F), 148 min post-dose, molarity calculated for extracellular fluid volume (20% of brain volume)",13 nM
same,BRAIN d5OT concentration,"[1]; Striatum, 40 IU IN, monkey #5 (F), perfused 138 min post-dose, LC-MS/MS",+
same,BRAIN d5OT concentration,"[1]; Thalamus, 40 IU IN, monkey #1 (F), 148 min post-dose, molarity calculated for extracellular fluid volume (20% of brain volume)",1 nM
same,"d5OT concentration in striatum (highest), comparable to that in the OFC","[1]; after IN d5OT, Table 1",~ 10 nM
same,BRAIN d5OT concentration,"[1]; dPFC, 40 IU IN, monkey #5 (F), perfused 138 min post-dose, LC-MS/MS",+
same,BRAIN d5OT concentration,"[1]; dPFC, 80 IU IN, monkey #4 (M), perfused 135 min post-dose, LC-MS/MS",+
same,BRAIN d5OT concentration,"[1]; dPFC, 80 IU IV, monkey #6 (F), perfused 135 min post-dose, LC-MS/MS",+
same,tissue level at time at 148 min,"[1]; rhesus monkey, brain (striatum), Striatum, 40 IU IN, monkey #1 (F), perfused 148 min post-dose, LC-MS/MS",2.41 ng/g
same,tissue level at time at 148 min,"[1]; rhesus monkey, brain (thalamus), Thalamus, 40 IU IN, monkey #1 (F), perfused 148 min post-dose, LC-MS/MS",0.23 ng/g
same,BRAIN d5OT concentration,"[1]; mPFC, 80 IU IV, monkey #6 (F), perfused 135 min post-dose, LC-MS/MS",+
same,tissue level at time at 136 min,"[1]; male, rhesus monkey, brain (OFC), OFC, 80 IU IN, monkey #2 (M), perfused 136 min post-dose, LC-MS/MS",2.04 ng/g
same,tissue level at time at 2.25 h,"[1]; male, rhesus monkey, brain (brainstem), Brainstem, 80 IU IN, monkey #4 (M), perfused 135 min post-dose, LC-MS/MS",0.24 ng/g
same,Brain concentrations of d5OT after IN delivery,"[1]; on the order of, Table 1",≥ 1 nM
same,CSF concentrations of d5OT,"[2]; 60 min after IN delivery of 80 IU, individual monkeys, previous study",11 pg/mL and 16 pg/mL and 67 pg/mL and 221 pg/mL
same,CSF d5OT concentration,"[2]; 60 minutes after IN administration, 4 individual monkeys, ref Lee et al., Mol Psychiatry 2018",11.28 pg/mL and 15.99 pg/mL and 67.65 pg/mL and 221.62 pg/mL
"CC[C@H](C)[C@@H]1NC(=O)[C@H](Cc2ccc(O)cc2)NC(=O)[C@@H](N)CSSC[C@@H](C(=O)N2CCC[C@H]2C(=O)N[C@@H](CC(C)C)C(=O)NCC(N)=O)NC(=O)[C@H](CC(N)=O)NC(=O)[C@H](CCC(N)=O)NC1=O [OT, oxytocin]",CSF OT concentration,[3],approximately 30 pg/ml
